Measurements from ChEMBL document CHEMBL1201862, “PubChem BioAssay data set” (2004).
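Interpolation was linear, between the two tested concentrations surrounding the appropriate level; five concentrations were tested over 48 hours in 96-well plates. Here, GI50 denotes the concentration required for 50% inhibition of growth.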 Calls of active or inactive are those of the source. Cut-off read from the data, not from the text of the source: active = GI50 up to about 1.1 µM and inactive = higher.

How the values were obtained:
Test in all cases: NCI anticancer screen, dose series, 48 h
[1] = tested on: SK-OV-3
[2] = tested on: RPMI-8226
[3] = tested on: RXF 393
[4] = tested on: SNB-75
[5] = tested on: HOP-92
[6] = tested on: HCT-116
[7] = tested on: UACC-62
[8] = tested on: CCRF-CEM
[9] = tested on: HT-29
[10] = tested on: NCI-H226
[11] = tested on: SF-295
[12] = tested on: OVCAR-5
[13] = tested on: OVCAR-3
[14] = tested on: SF-539
[15] = tested on: HL-60
[16] = tested on: SN12C
[17] = tested on: Malme-3M
[18] = tested on: SNB-78
[19] = tested on: M19-MEL
[20] = tested on: UACC-257
[21] = tested on: MOLT-4
[22] = tested on: CAKI-1
[23] = tested on: SF-268
[24] = tested on: SW-620
[25] = tested on: EKVX
[26] = tested on: HOP-62
[27] = tested on: A549
[28] = tested on: HCT-15
[29] = tested on: SK-MEL-28
[30] = tested on: NCI-H460
[31] = tested on: KM12
[32] = tested on: NCI/ADR-RES
[33] = tested on: SK-MEL-2
[34] = tested on: SNB-19
[35] = tested on: HOP-18
[36] = tested on: DLD-1
[37] = tested on: OVCAR-8
[38] = tested on: IGROV-1
[39] = tested on: COLO 205
[40] = tested on: NCI-H23
[41] = tested on: KM-20L2
[42] = tested on: OVCAR-4
[43] = tested on: MCF7
[44] = tested on: DMS-114
[45] = tested on: SK-MEL-5
[46] = tested on: XF498
[47] = tested on: HCC 2998
[48] = tested on: NCI-H522
[49] = tested on: U-251
[50] = tested on: A498
[51] = tested on: LOX IMVI
[52] = tested on: DMS-273
[53] = tested on: UO-31
[54] = tested on: K562
[55] = tested on: M14
[56] = tested on: ACHN
[57] = tested on: TK-10
[58] = tested on: 786-0
[59] = tested on: LXFL 529
[60] = tested on: SR

O=C1C=CC2OC(c3ccccc3)C(O)C2O1 (configuration not stated)
GI50 [1]: 13.8 µM (inactive)
GI50 [2]: 1.39 µM (inactive)
GI50 [3]: 1.37 µM (inactive)
GI50 [4]: 10.4 µM (inactive)
GI50 [5]: 2.15 µM (inactive)
GI50 [6]: 2.49 µM (inactive)
GI50 [7]: 4.94 µM (inactive)
GI50 [8]: 1.15 µM (inactive)
GI50 [9]: 4.53 µM (inactive)
GI50 [10]: 1.48 µM (inactive)
GI50 [11]: 7.71 µM (inactive)
GI50 [12]: 9.38 µM (inactive)
GI50 [13]: 3.5 µM (inactive)
GI50 [14]: 3.07 µM (inactive)
GI50 [15]: 1.4 µM (inactive)
GI50 [16]: 7.03 µM (inactive)
GI50 [17]: 3.02 µM (inactive)
GI50 [18]: 7.08 µM (inactive)
GI50 [19]: 12 µM (inactive)
GI50 [20]: 6.31 µM (inactive)
GI50 [21]: 1.43 µM (inactive)
GI50 [22]: 2.85 µM (inactive)
GI50 [23]: 5.53 µM (inactive)
GI50 [24]: 2.17 µM (inactive)
GI50 [25]: 4.91 µM (inactive)
GI50 [26]: 12 µM (inactive)
GI50 [27]: 5.74 µM (inactive)
GI50 [28]: 3.42 µM
GI50 [29]: 4.49 µM (inactive)
GI50 [30]: 4.7 µM (inactive)
GI50 [31]: 6.76 µM (inactive)
GI50 [32]: 2.94 µM (inactive)
GI50 [33]: 2.75 µM (inactive)
GI50 [34]: 11.4 µM (inactive)
GI50 [35]: 0.984 µM (active)
GI50 [36]: 3.89 µM (inactive)
GI50 [37]: 3.62 µM (inactive)
GI50 [38]: 8.99 µM (inactive)
GI50 [39]: 2.58 µM (inactive)
GI50 [40]: 3.07 µM (inactive)
GI50 [41]: 5.98 µM (inactive)
GI50 [42]: 7.87 µM (inactive)
GI50 [43]: 6.07 µM (inactive)
GI50 [44]: 4.57 µM (inactive)
GI50 [45]: 7.33 µM (inactive)
GI50 [46]: 2.8 µM (inactive)
GI50 [47]: 2.47 µM (inactive)
GI50 [48]: 1.35 µM (inactive)
GI50 [49]: 10.7 µM (inactive)
GI50 [50]: 2.27 µM (inactive)
GI50 [51]: 1.95 µM (inactive)
GI50 [52]: 4.91 µM (inactive)
GI50 [53]: 10.2 µM (inactive)
GI50 [54]: 3.37 µM (inactive)

CC(=O)OC1C=C(C=O)C(O)(C=O)C2(C)CCCC(C)(C)C12 (configuration not stated)
GI50 [1]: 4.34 µM (inactive)
GI50 [2]: 0.519 µM (active)
GI50 [3]: 0.491 µM (active)
GI50 [4]: 2.4 µM (inactive)
GI50 [5]: 1.05 µM (active)
GI50 [6]: 0.989 µM (active)
GI50 [7]: 2.76 µM (inactive)
GI50 [8]: 0.238 µM (active)
GI50 [9]: 1.39 µM (inactive)
GI50 [10]: 2.69 µM (inactive)
GI50 [11]: 3.07 µM (inactive)
GI50 [12]: 4.55 µM (inactive)
GI50 [13]: 0.693 µM (active)
GI50 [14]: 2.4 µM (inactive)
GI50 [15]: 0.249 µM (active)
GI50 [16]: 2.52 µM (inactive)
GI50 [17]: 0.971 µM (active)
GI50 [18]: 2.67 µM (inactive)
GI50 [19]: 1.23 µM (inactive)
GI50 [20]: 2 µM (inactive)
GI50 [21]: 0.37 µM (active)
GI50 [22]: 1 µM (active)
GI50 [23]: 2.42 µM (inactive)
GI50 [24]: 0.485 µM (active)
GI50 [25]: 2.65 µM (inactive)
GI50 [26]: 6.38 µM (inactive)
GI50 [27]: 4.54 µM (inactive)
GI50 [28]: 0.6 µM
GI50 [29]: 1.05 µM (active)
GI50 [30]: 1.64 µM (inactive)
GI50 [31]: 2.31 µM (inactive)
GI50 [32]: 1.8 µM (inactive)
GI50 [33]: 2.86 µM (inactive)
GI50 [34]: 5.6 µM (inactive)
GI50 [35]: 0.931 µM (active)
GI50 [36]: 1.05 µM (active)
GI50 [37]: 1.24 µM (inactive)
GI50 [38]: 2.49 µM (inactive)
GI50 [39]: 0.859 µM (active)
GI50 [40]: 1.44 µM (inactive)
GI50 [41]: 2.11 µM (inactive)
GI50 [42]: 1.33 µM (inactive)
GI50 [43]: 1.89 µM (inactive)
GI50 [44]: 0.927 µM (active)
GI50 [45]: 1.17 µM (inactive)
GI50 [46]: 1.49 µM (inactive)
GI50 [47]: 2.61 µM (inactive)
GI50 [48]: 0.456 µM (active)
GI50 [49]: 3.8 µM (inactive)
GI50 [50]: 1.28 µM (inactive)
GI50 [51]: 0.942 µM (active)
GI50 [52]: 2.08 µM (inactive)
GI50 [53]: 2.32 µM (inactive)
GI50 [54]: 0.809 µM (active)

CC1OC(n2ccc(=O)[nH]c2=O)C=C(OC(=O)c2ccccc2)C1=O (configuration not stated)
GI50 [1]: > 100 µM (inactive)
GI50 [2]: > 100 µM (inactive)
GI50 [3]: 95.5 µM (inactive)
GI50 [4]: 27 µM (inactive)
GI50 [5]: 30.2 µM (inactive)
GI50 [7]: > 100 µM (inactive)
GI50 [8]: > 100 µM (inactive)
GI50 [9]: 44.6 µM (inactive)
GI50 [11]: 51.1 µM (inactive)
GI50 [13]: 26.9 µM (inactive)
GI50 [14]: > 100 µM (inactive)
GI50 [15]: > 100 µM (inactive)
GI50 [16]: 88.3 µM (inactive)
GI50 [17]: 74.6 µM (inactive)
GI50 [18]: > 100 µM (inactive)
GI50 [19]: > 100 µM (inactive)
GI50 [55]: 88.9 µM (inactive)
GI50 [20]: 86.9 µM (inactive)
GI50 [21]: > 100 µM (inactive)
GI50 [22]: 42.6 µM (inactive)
GI50 [24]: 64.6 µM (inactive)
GI50 [25]: > 100 µM (inactive)
GI50 [26]: 71.9 µM (inactive)
GI50 [27]: 39.3 µM (inactive)
GI50 [28]: > 100 µM
GI50 [29]: 48.6 µM (inactive)
GI50 [30]: 48.6 µM (inactive)
GI50 [34]: > 100 µM (inactive)
GI50 [35]: 38.4 µM (inactive)
GI50 [36]: > 100 µM (inactive)
GI50 [56]: 76.7 µM (inactive)
GI50 [37]: 45 µM (inactive)
GI50 [38]: > 100 µM (inactive)
GI50 [57]: 49 µM (inactive)
GI50 [39]: > 100 µM (inactive)
GI50 [40]: 36.6 µM (inactive)
GI50 [58]: > 100 µM (inactive)
GI50 [41]: 73.5 µM (inactive)
GI50 [42]: 18.9 µM (inactive)
GI50 [45]: 56.1 µM (inactive)
GI50 [46]: 21.2 µM (inactive)
GI50 [49]: 29 µM (inactive)
GI50 [51]: 35.7 µM (inactive)
GI50 [52]: > 100 µM (inactive)
GI50 [53]: 55.6 µM (inactive)
GI50 [54]: > 100 µM (inactive)

CC(C)c1cccc(C(C)C)c1NC(=O)C(=O)C(C(=O)c1ccccc1-c1ccccc1)C1OC(=O)c2ccccc21 (configuration not stated)
GI50 [2]: 32.6 µM (inactive)
GI50 [59]: 17.7 µM (inactive)
GI50 [3]: 12.9 µM (inactive)
GI50 [6]: 24.9 µM (inactive)
GI50 [7]: 17.5 µM (inactive)
GI50 [8]: 13.8 µM (inactive)
GI50 [9]: 17.9 µM (inactive)
GI50 [10]: > 10 µM (inactive)
GI50 [11]: 16.6 µM (inactive)
GI50 [12]: 18.5 µM (inactive)
GI50 [14]: 12.6 µM (inactive)
GI50 [16]: 20.8 µM (inactive)
GI50 [60]: 22.6 µM (inactive)
GI50 [17]: 14.8 µM (inactive)
GI50 [18]: 21.9 µM (inactive)
GI50 [19]: 17.1 µM (inactive)
GI50 [20]: 12.6 µM (inactive)
GI50 [21]: 11.6 µM (inactive)
GI50 [22]: 30.1 µM (inactive)
GI50 [23]: 21.7 µM (inactive)
GI50 [24]: 19.9 µM (inactive)
GI50 [25]: > 10 µM (inactive)
GI50 [27]: 28 µM (inactive)
GI50 [28]: 18.4 µM
GI50 [29]: 20.1 µM (inactive)
GI50 [30]: 15 µM (inactive)
GI50 [31]: 16.7 µM (inactive)
GI50 [33]: 14.9 µM (inactive)
GI50 [34]: 16.8 µM (inactive)
GI50 [56]: 32.3 µM (inactive)
GI50 [37]: 13.7 µM (inactive)
GI50 [38]: 24.3 µM (inactive)
GI50 [57]: 26.5 µM (inactive)
GI50 [39]: 30.9 µM (inactive)
GI50 [40]: 1.25 µM (inactive)
GI50 [58]: 17.8 µM (inactive)
GI50 [41]: 21.5 µM (inactive)
GI50 [42]: 16 µM (inactive)
GI50 [44]: 17.7 µM (inactive)
GI50 [45]: 15.5 µM (inactive)
GI50 [46]: 13.3 µM (inactive)
GI50 [47]: 17.6 µM (inactive)
GI50 [48]: 15.5 µM (inactive)
GI50 [49]: 12.8 µM (inactive)
GI50 [51]: 14.2 µM (inactive)
GI50 [52]: 22.9 µM (inactive)
GI50 [53]: 18.7 µM (inactive)
GI50 [54]: 21.4 µM (inactive)
